This is an account of results in ChEMBL document CHEMBL1130525, “Robustaflavone, a naturally occurring biflavanoid, is a potent non-nucleoside inhibitor of hepatitis B virus replication in vitro” (Bioorg Med Chem Lett, 1997).

Experiment [1] relates to HepG2. In words: Effective concentration necessary to decrease extracellular Hepatitis B virus DNA levels by 50% in human hepatoblastoma cell line (2.2.15 cells) in vitro. The format is functional, cell-based.
Experiment [2] concerns HepG2. In words: Cytotoxicity towards human hepatoblastoma cell line (2.2.15 cells) measured by inhibition of neutral red dye uptake in vitro. Type of experiment: functional, cell-based.
For experiment [3], the system named is HepG2. As to the kind of experiment: Effective concentration necessary to decrease extracellular Hepatitis B virus DNA levels by 90% in human hepatoblastoma cell line (2.2.15 cells) in vitro. Type of experiment: functional.
The nature of experiment [4]: In vitro selectivity index measured for IC50 to that of EC90 was determined in human hepatoblastoma cell line (2.2.15 cells). The format is functional.
The subject of experiment [5] is HepG2. As to the kind of experiment: Relative level of HBV viral DNA (Intracellular) following treatment of human hepatoblastoma cell line (2.2.15 cells) with the compound. Type of experiment: functional.
Experiment [6] concerns HepG2. As to the kind of experiment: Relative level of HBV viral antigen (HBsAg) following treatment of human hepatoblastoma cell line (2.2.15 cells) with the compound. Type of experiment: functional.
The subject of experiment [7] is HepG2. In words: Relative level of HBV viral mRNA (3.6 kb mRNA) following treatment of human hepatoblastoma cell line (2.2.15 cells) with the compound. The format is functional.
Experiment [8] has as its system HepG2. In words: Relative level of HBV viral antigen (HBcAg) following treatment of human hepatoblastoma cell line (2.2.15 cells) with the compound. Type of experiment: functional.
Experiment [9] deals with HepG2. In words: Relative level of HBV viral mRNA (2.1 kb mRNA) following treatment of human hepatoblastoma cell line (2.2.15 cells) with the compound. Type of experiment: functional.
The subject of experiment [10] is HepG2. As to the kind of experiment: Relative level of HBV viral DNA (Extracellular) following treatment of human hepatoblastoma cell line (2.2.15 cells) with the compound. The format is functional.
The subject of experiment [11] is HepG2. As to the kind of experiment: Relative level of HBV viral antigen (HBeAg) following treatment of human hepatoblastoma cell line (2.2.15 cells) with the compound. The format is functional.

With `Nc1ccn([C@@H]2CS[C@H](CO)O2)c(=O)n1` [LAMIVUDINE], the half-maximal effective concentration (EC50) in the experiment with HepG2 [1] came to 0.038 µM. Half-maximal inhibition in the experiment on HepG2 [2] (IC50) required 1790 µM. In the experiment on HepG2 [3], this compound had a concentration for an effect of 90% (EC90) of 0.16 µM. Moreover, the Ratio in experiment [4] is 11200.

In the experiment with HepG2 [1], `Nc1nc(O)c2ncn(CCC(CO)CO)c2n1` [PENCICLOVIR] had an EC50 of 0.19 µM. In the experiment on HepG2 [2], inhibition was half-maximal at 433 µM (IC50). Besides, the 90% effect concentration (EC90) in the experiment with HepG2 [3] stood at 0.92 µM. The Ratio in experiment [4] is 471.

For `O=c1cc(-c2ccc(O)c(-c3c(O)cc4oc(-c5ccc(O)cc5)cc(=O)c4c3O)c2)oc2cc(O)cc(O)c12` [ROBUSTAFLAVONE], the Relative level was determined as 5 in the experiment with HepG2 [5]; 97 in the experiment on HepG2 [6]; 93 with HepG2 [7]; 138 in the experiment on HepG2 [8]; 106 with HepG2 [9]; 1 in the experiment on HepG2 [10]. The same compound returned a Relative level with HepG2 [11] of 86. In the experiment on HepG2 [1], the EC50 amounted to 0.25 µM. This compound yielded an IC50 in the experiment with HepG2 [2] of 337 µM. This compound also registered an EC90 in the experiment with HepG2 [3] of 2.2 µM. The Ratio in experiment [4] stood at 153.

For the compound `Nc1ccn([C@H]2CC[C@@H](CO)O2)c(=O)n1` [ZALCITABINE], the Relative level in the experiment on HepG2 [5] stood at 6; in the experiment with HepG2 [6], 90; in the experiment on HepG2 [7], 94; in the experiment with HepG2 [8], 91; with HepG2 [9], 87; in the experiment with HepG2 [10], 1. In the experiment on HepG2 [11], this compound registered a Relative level of 88. In the experiment with HepG2 [1], the midpoint of the response, the EC50, lay at 1.4 µM. The IC50 with HepG2 [2] was found to be 252 µM. In addition, in the experiment with HepG2 [3], the 90% effect level (EC90) was put at 8.4 µM. Besides, the Ratio in [4] was found to be 30.

One may read the EC50 as the concentration that produces a half-maximal response. High values mean lower potency in that assay, low ones higher potency in that assay. A word on the IC50: it is the concentration at which inhibition is half-maximal. Read a low IC50 as inhibition by little substance. One may read the EC90 as the point of the concentration-response curve where the effect stands at 90%.
